# Assay results published in patent US9127040B2, “Regulation of sodium channels by PLUNC proteins” (The University of North Carolina at Chapel Hill, priority 2011, dated 2015).
# Ends that are not written are not given here.
# T1: neutrophil elastase (Homo sapiens, UniProt P08246)
# T1 sequence (P08246 30-267): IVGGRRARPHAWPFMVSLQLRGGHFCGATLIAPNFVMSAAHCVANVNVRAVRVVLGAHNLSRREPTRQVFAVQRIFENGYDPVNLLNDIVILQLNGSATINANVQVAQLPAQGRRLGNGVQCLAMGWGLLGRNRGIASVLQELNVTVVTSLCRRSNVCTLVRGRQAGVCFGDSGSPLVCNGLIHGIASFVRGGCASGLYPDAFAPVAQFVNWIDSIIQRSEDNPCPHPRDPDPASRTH
# B1: SPLUNC1: human SPLUNC1 (SEQ ID NO:1), 256 amino acid secreted PLUNC family protein; rSPLUNC1 is the purified V5/6His-tagged recombinant form (protein, listed as Homo sapiens)
# chain: MFQTGGLIVFYGLLAQTMAQFGGLPVPLDQTLPLNVNPALPLSPTGLAGSLTNALSNGLLSGGLLGILENLPLLDILKPGGGTSGGLLGGLLGKVTSVIPGLNNIIDIKVTDPQLLELGLVQSPDGHRLYVTIPLGIKLQVNTPLVGASLLRLAVKLDITAEILAVRDKQERIHLVLGDCTHSPGSLQISLLDGLGPLPIQGLLDSLTGILNKVLPELVQGNVCPLVNEVLRGLDITLVHDIVNMLIHGLQFVIKV
# modifications: V5/6His tag in recombinant form
# notes: rSPLUNC1 is the purified V5/6His-tagged recombinant form
# How the values were obtained:
# human ASIC1a = target: T2, human ASIC1a (Homo sapiens, UniProt P78348); assay: Whole-cell patch-clamp currents in CHO cells stably expressing ASIC; assay type: cell-based; conditions: 10 μM S18
# T2 construct: expressed in transfected cells
# T2 sequence (P78348 whole entry): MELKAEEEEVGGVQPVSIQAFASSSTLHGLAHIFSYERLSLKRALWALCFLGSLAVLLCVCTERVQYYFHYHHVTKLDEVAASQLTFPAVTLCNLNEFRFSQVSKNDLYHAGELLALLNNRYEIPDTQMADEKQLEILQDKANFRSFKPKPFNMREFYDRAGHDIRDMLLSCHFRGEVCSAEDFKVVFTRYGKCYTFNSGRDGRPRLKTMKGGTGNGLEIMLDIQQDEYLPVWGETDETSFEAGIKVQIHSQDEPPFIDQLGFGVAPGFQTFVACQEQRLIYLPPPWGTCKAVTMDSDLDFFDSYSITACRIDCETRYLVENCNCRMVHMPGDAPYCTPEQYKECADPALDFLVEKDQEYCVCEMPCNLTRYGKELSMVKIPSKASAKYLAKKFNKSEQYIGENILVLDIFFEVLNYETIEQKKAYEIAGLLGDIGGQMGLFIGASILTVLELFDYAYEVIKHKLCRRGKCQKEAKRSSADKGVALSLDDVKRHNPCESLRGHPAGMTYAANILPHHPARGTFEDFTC
# Protocol: (§1) Previously described cell lines expressing human ASIC1a, human ASIC2a and rat ASIC3 were used in these experiments (Poirot, J. Biol. Chem. 279: 38448 (2004))). Electrophysiological measurements were carried out with an EPC10 patch-clamp amplifier (HEKA Electronics, Lambrecht, Germany) as previously described (Blanchard et al., Pflugers Arch. 461:123 (2011)).
# (§2) Whole-cell currents were measured from CHO cells stably expressing acid-sensing ion channel (ASIC) subunits, voltage clamped to −60 mV. Stimulations lasted 5 s and were performed every 45 s. Cells were stimulated three times with pH 6.6 (ASIC1a and -3) or pH 4 (ASIC2a). Between stimulations, cells were returned to a pH 7.4 conditioning solution for […] recovery from inactivation. The conditioning solution was then switched to a pH 7.4 solution containing 10 μM S18. Three stimulations in the presence of 10 μM S18 were performed before washing off the peptide. Current amplitudes of the above described experiments were normalized to the first control value and plotted as a function of time (FIG. 28B). S18 was added at T=0 s. ASIC1a=▪, ASIC2a=●, ASIC3=▴, all n=3. Cells were incubated for 40 s in a pH 7.1 (ASIC1a and -3) or 5.6 (ASIC2a) conditioning solution, then activated using an acidic stimulus (pH 5 for ASIC1a and -3, and pH 4 for ASIC2a) (FIG. 28C). Experiments were performed with or without 10 μM S18 in the conditioning solution. Current amplitudes measured during the acidic stimulus were normalized to the control amplitude obtained with a pH 7.4 conditioning solution. Open bars=control, closed bars=S18, all n=3-4. […] Stimulations were performed every 45 s. The protocol was performed with or without 10 μM S18 in all solutions. The average current is plotted as a function of time. […] Control=∘, S18=▪, all n=3-5.
# human ASIC2a = target: T3, human ASIC2a (Homo sapiens, UniProt Q16515); assay: as above; assay type: cell-based; conditions: 10 μM S18
# T3 construct: expressed in transfected cells
# T3 sequence (Q16515 whole entry): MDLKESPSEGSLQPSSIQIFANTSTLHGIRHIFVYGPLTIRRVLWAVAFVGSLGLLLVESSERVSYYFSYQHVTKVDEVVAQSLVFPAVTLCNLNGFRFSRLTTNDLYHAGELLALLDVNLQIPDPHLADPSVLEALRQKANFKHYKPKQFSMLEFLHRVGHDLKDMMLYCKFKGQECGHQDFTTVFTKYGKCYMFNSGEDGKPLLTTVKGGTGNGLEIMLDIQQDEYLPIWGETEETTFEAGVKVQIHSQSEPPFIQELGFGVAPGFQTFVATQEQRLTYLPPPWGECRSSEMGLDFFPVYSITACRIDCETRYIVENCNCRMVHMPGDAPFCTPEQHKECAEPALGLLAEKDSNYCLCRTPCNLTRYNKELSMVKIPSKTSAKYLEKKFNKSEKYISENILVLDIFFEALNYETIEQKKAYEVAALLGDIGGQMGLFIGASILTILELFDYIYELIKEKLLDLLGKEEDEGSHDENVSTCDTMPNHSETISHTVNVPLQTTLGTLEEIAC
# Protocol: as §1, §2
# rat ASIC3 = target: T4, rat ASIC3 (Rattus norvegicus, UniProt O35240); assay: as above; assay type: cell-based; conditions: 10 μM S18
# T4 construct: expressed in transfected cells
# T4 sequence (O35240 whole entry): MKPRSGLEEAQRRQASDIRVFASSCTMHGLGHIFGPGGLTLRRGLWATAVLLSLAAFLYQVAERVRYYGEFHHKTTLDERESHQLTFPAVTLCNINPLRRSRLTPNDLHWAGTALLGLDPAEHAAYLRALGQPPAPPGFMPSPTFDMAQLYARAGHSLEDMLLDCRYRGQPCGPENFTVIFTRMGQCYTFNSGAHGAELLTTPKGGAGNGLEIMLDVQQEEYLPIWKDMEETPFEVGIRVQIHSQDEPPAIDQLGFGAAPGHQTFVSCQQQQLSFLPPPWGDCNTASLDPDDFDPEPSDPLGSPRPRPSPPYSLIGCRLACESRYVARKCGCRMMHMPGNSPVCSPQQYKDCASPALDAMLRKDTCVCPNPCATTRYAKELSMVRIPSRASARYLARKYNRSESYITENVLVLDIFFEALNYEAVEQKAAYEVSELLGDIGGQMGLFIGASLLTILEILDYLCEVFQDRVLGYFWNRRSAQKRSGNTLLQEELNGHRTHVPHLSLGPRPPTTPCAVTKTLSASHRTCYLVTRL
# Protocol: as §1, §2
# [1] = Urinary Na+ excretion (natriuresis) in anesthetized mice after intravenous infusion; assay type: in vivo; conditions: 250 nmol/g BW/h intravenous infusion, unconscious mice
# Protocol: To study the effects of SPLUNC1-derived peptides on the in vivo kidney, mice were anesthetized. After a baseline 45 min control clearance period, S18-type peptide or amiloride were infused intravenously over 30 min and the natriuretic response recorded over the subsequent 2-3 h.
# Urinary Na^+ output was measured in unconscious mice (FIG. 32). Amiloride (38 nmol/g BW/h; ▪) and S18 (250 nmol/g BW/h; ▴) were added during the infusion period and urinary Na^+ excretion (UNaV) was measured throughout.
# NL HBECs = assay: ASL height by confocal microscopy in normal lung (NL) HBECs; assay type: cell-based, human; conditions: SPLUNC1 shRNA knockdown, 50 ng/ml rSPLUNC1 added to ASL
# Protocol: To label airway surface liquid, Ringer containing Texas Red-dextran (2 mg/ml; Invitrogen) was added to human bronchial epithelial culture mucosal surfaces. Perfluorocarbon was added mucosally to prevent evaporation of the airway surface liquid and the culture placed in a chamber containing 100 μl Ringer on the stage of a Leica SP5 confocal microscope with a 63× glycerol immersion objective. 5 points per culture were scanned and an average airway surface liquid height determined. For confocal microscopy human bronchial epithelial cultures were bathed serosally in a modified Ringer solution containing (mM): 116 NaCl, 10 NaHCO3, 5.1 KCl, 1.2 CaCl2, 1.2 MgCl2, 20 TES, 10 glucose, pH 7.4). At all other times, human bronchial epithelial cultures were maintained in a modified BEGM growth medium which contained 24 mM NaHCO3 gassed with 5% CO2.
# To label the ASL, PBS containing 10 kDa Rhodamine dextran (0.2-2 mg/mL; Invitrogen, Carlsbad, Calif., USA) was added to HBEC mucosal surfaces as previously described (Tarran et al., Mol. Cell 8:149 (2001)). When added, peptides with or without 100 nM neutrophil elastase, 1 U/mL aprotinin, activated neutrophil supernatant (ANS) (Haynes et al., Am. J. Physiol. Heart Circ. Physiol. 294:H379 (2008)) or 10 μM sivelestat (Sigma-Aldrich, St Louis, Mo., USA) were added to the mucosal surface along with the Rhodamine dextran. Bumetanide (100 μM) was added to the serosal solution.
# neutrophil elastase = target: T1, neutrophil elastase; assay: Cleavage of SPLUNC1 by neutrophil elastase at pH 6 vs 7.4; conditions: 10 μM SPLUNC1, 100 nM neutrophil elastase
# Protocol: A, Neutrophil elastase activity is moderately greater at pH 6 than at pH 7.4. B, Coomassie-stained gel showing 10 μM SPLUNC1 exposed to 100 nM Neutrophil elastase at pH 6 and 7.4. The reaction was stopped at timed intervals.
# Based on SPLUNC1 but not S18's pH-sensitivity (FIGS. 25B and 25C), we hypothesized that SPLUNC1 undergoes a conformational change, and binds to itself at pH 6. To test this, we exposed SPLUNC1 to neutrophil elastase at pH 6 vs. 7.4 (FIG. 26). […] This is consistent with our hypothesis that less SPLUNC1 is exposed at low pH.
Molecule,function of ASIC1a channels (human ASIC1a),function of ASIC2a channels (human ASIC2a),function of ASIC3 channels (rat ASIC3),urinary Na+ excretion (UNaV) [1],regulation of airway surface liquid height in cultures lacking SPLUNC1 (NL HBECs),regulation of airway surface liquid height in cultures lacking SPLUNC1 (NL HBECs; listed as recombinant SPLUNC1),cleavage by neutrophil elastase at pH 6 (neutrophil elastase)
GGLPVPLDQTLPLNVNPA [S18],does not Affect the Function,does not Affect the Function,does not Affect the Function,induces natriuresis,,,
B1,,,,,restored,sufficient to restore ASL volume regulation,resistant to cleavage
